Reference: PubChem BioAssay AID1745844 (Carcinogenic Potency Database (CPDB), 2022)
Activity calls are given as the source filed them. The rule behind the calls is not given here.

Test system: rodent lifetime carcinogenesis bioassay, tumor incidence TD50
Assay: carcinogenic potency in animals, long-term in vivo studies, CPDB compilation (AID 1745844)

## ClC1=C(Cl)[C@]2(Cl)[C@H]3[C@H]([C@@H]4C=C[C@H]3C4)[C@@]1(Cl)C2(Cl)Cl
mouse, strain B6C3F1, females, in feed, site: any site (literature study), lesion: several types, types named in the paper, dosed 80 weeks, study length 90 weeks
  carcinogen call: negative (inactive)
mouse, strain B6C3F1, females, in feed, site: lung, lesion: alveolar/bronchiolar adenoma + alveolar/bronchiolar carcinoma, dosed 80 weeks, study length 90 weeks
  TD50: 9.02 mg/kg/day
mouse, strain B6C3F1, males, in feed, site: any site (literature study), lesion: several types, types named in the paper, dosed 80 weeks, study length 90 weeks
  TD50: 1.01 mg/kg/day
mouse, strain B6C3F1, males, in feed, site: liver, lesion: hepatocellular adenoma + hepatocellular carcinoma + neoplastic nodule, dosed 80 weeks, study length 90 weeks
  TD50: 0.741 mg/kg/day
mouse, strain B6C3F1, males, in feed, site: liver, lesion: hepatocellular carcinoma, dosed 80 weeks, study length 89 weeks
  TD50: 0.861 mg/kg/day
mouse, strain B6C3F1, males, in feed, site: liver, lesion: hepatocellular carcinoma, dosed 80 weeks, study length 90 weeks
  TD50: 0.741 mg/kg/day
mouse, strain B6C3F1, males, in feed, site: lung, lesion: alveolar/bronchiolar adenoma + alveolar/bronchiolar carcinoma, dosed 80 weeks, study length 90 weeks
  TD50: 3.2 mg/kg/day
mouse, strain C3HeB/Fe, both sexes, in feed, site: any site (literature study), lesion: benign tumor, dosed 104 weeks, study length 104 weeks
  TD50: 4.25 mg/kg/day
mouse, strain C3HeB/Fe, both sexes, in feed, site: liver, lesion: hepatocellular adenoma, dosed 104 weeks, study length 104 weeks
  TD50: 4.41 mg/kg/day
mouse, strain C3HeB/Fe, both sexes, in feed, site: liver, lesion: hepatoma, dosed 104 weeks, study length 104 weeks
  TD50: 3.45 mg/kg/day
mouse, strain C3HeB/Fe, both sexes, in feed, site: lung, lesion: carcinoma, dosed 104 weeks, study length 104 weeks
  TD50: 129 mg/kg/day
rat, strain Not specified, females, in feed, site: any site (literature study), lesion: one or several types, types not named, dosed 104 weeks, study length 104 weeks
  carcinogen call: negative (inactive)
rat, strain Not specified, males, in feed, site: any site (literature study), lesion: one or several types, types not named, dosed 104 weeks, study length 104 weeks
  carcinogen call: negative (inactive)
rat, strain Osborne-Mendel, both sexes, in feed, site: any site (literature study), lesion: several types, types named in the paper, dosed 104 weeks, study length 104 weeks
  carcinogen call: positive
rat, strain Osborne-Mendel, both sexes, in feed, site: lung, lesion: lymphosarcoma, dosed 104 weeks, study length 104 weeks
  TD50: 42.3 mg/kg/day
rat, strain Osborne-Mendel, females, in feed, site: adrenal gland, lesion: cortical adenoma, dosed 80 weeks, study length 109 weeks
  TD50: 3.12 mg/kg/day (inactive)
rat, strain Osborne-Mendel, females, in feed, site: any site (literature study), lesion: one or several types, types not named, dosed 104 weeks, study length 104 weeks
  TD50: 1.69 mg/kg/day
rat, strain Osborne-Mendel, females, in feed, site: any site (literature study), lesion: several types, types named in the paper, dosed 80 weeks, study length 111 weeks
  carcinogen call: negative (inactive)
rat, strain Osborne-Mendel, females, in feed, site: any site (literature study), lesion: several types, types named in the paper, dosed 108 weeks, study length 108 weeks
  carcinogen call: negative (inactive)
rat, strain Osborne-Mendel, females, in feed, site: any site (literature study), lesion: several types, types named in the paper, dosed 111 weeks, study length 117 weeks
  carcinogen call: negative (inactive)
rat, strain Osborne-Mendel, females, in feed, site: liver, lesion: hepatocellular adenoma + hepatocellular carcinoma + neoplastic nodule, dosed 80 weeks, study length 111 weeks
  TD50: 466 mg/kg/day
rat, strain Osborne-Mendel, females, in feed, site: liver, lesion: one or several types, types not named, dosed 104 weeks, study length 104 weeks
  carcinogen call: negative (inactive)
rat, strain Osborne-Mendel, females, in feed, site: liver, lesion: one or several types, types not named, dosed 108 weeks, study length 108 weeks
  carcinogen call: negative (inactive)
rat, strain Osborne-Mendel, females, in feed, site: liver, lesion: one or several types, types not named, dosed 111 weeks, study length 117 weeks
  carcinogen call: negative (inactive)
rat, strain Osborne-Mendel, females, in feed, site: lymphoreticular system, lesion: one or several types, types not named, dosed 104 weeks, study length 104 weeks
  TD50: 4.35 mg/kg/day (inactive)
rat, strain Osborne-Mendel, males, in feed, site: any site (literature study), lesion: several types, types named in the paper, dosed 74 weeks, study length 111 weeks
  TD50: 16.4 mg/kg/day (inactive)
rat, strain Osborne-Mendel, males, in feed, site: any site (literature study), lesion: several types, types named in the paper, dosed 108 weeks, study length 108 weeks
  TD50: 4.21 mg/kg/day (inactive)
rat, strain Osborne-Mendel, males, in feed, site: any site (literature study), lesion: several types, types named in the paper, dosed 124 weeks, study length 134 weeks
  carcinogen call: negative (inactive)
rat, strain Osborne-Mendel, males, in feed, site: liver, lesion: hemangioma, dosed 124 weeks, study length 134 weeks
  carcinogen call: negative (inactive)
rat, strain Osborne-Mendel, males, in feed, site: liver, lesion: one or several types, types not named, dosed 108 weeks, study length 108 weeks
  carcinogen call: negative (inactive)
rat, strain Sprague-Dawley, females, in feed, site: liver, lesion: one or several types, types not named, dosed 104 weeks, study length 104 weeks
  carcinogen call: negative (inactive)

## O=NN1CCCC1c1ccc[n+]([O-])c1 (stereo unspecified)
hamster, strain Syrian Golden, females, in drinking water, site: liver, lesion: angiosarcoma, dosed 31 weeks, study length 96 weeks
  TD50: 39 mg/kg/day (inactive)
rat, strain Fischer 344, females, in drinking water, site: esophagus, lesion: several types, types named in the paper, dosed 36 weeks, study length 104 weeks
  TD50: 5.65 mg/kg/day
rat, strain Fischer 344, females, in drinking water, site: nasal cavity, lesion: several types, types named in the paper, dosed 36 weeks, study length 104 weeks
  TD50: 1.86 mg/kg/day
rat, strain Fischer 344, males, in drinking water, site: esophagus, lesion: papilloma, dosed 36 weeks, study length 104 weeks
  TD50: 2.64 mg/kg/day
rat, strain Fischer 344, males, in drinking water, site: esophagus, lesion: several types, types named in the paper, dosed 36 weeks, study length 104 weeks
  TD50: 1.63 mg/kg/day
rat, strain Fischer 344, males, in drinking water, site: nasal cavity, lesion: malignant tumor, dosed 36 weeks, study length 104 weeks
  TD50: 1.63 mg/kg/day
rat, strain Fischer 344, males, in drinking water, site: nasal cavity, lesion: papilloma, dosed 36 weeks, study length 104 weeks
  TD50: 2.64 mg/kg/day
rat, strain Fischer 344, males, in drinking water, site: nasal cavity, lesion: several types, types named in the paper, dosed 36 weeks, study length 104 weeks
  TD50: 0.573 mg/kg/day

## Cc1ccc(C)c(C)c1
rat, strain Sprague-Dawley, females, by gavage, site: any site (literature study), lesion: malignant tumor, dosed 104 weeks, study length 123 weeks
  TD50: 14300 mg/kg/day
rat, strain Sprague-Dawley, males, by gavage, site: Zymbal's gland, lesion: carcinoma, dosed 104 weeks, study length 123 weeks
  TD50: 18000 mg/kg/day
rat, strain Sprague-Dawley, males, by gavage, site: any site (literature study), lesion: malignant tumor, dosed 104 weeks, study length 123 weeks
  TD50: 13900 mg/kg/day
rat, strain Sprague-Dawley, males, by gavage, site: any site (literature study), lesion: several types, types named in the paper, dosed 104 weeks, study length 123 weeks
  TD50: 1940 mg/kg/day
rat, strain Sprague-Dawley, males, by gavage, site: ear duct, lesion: carcinoma, dosed 104 weeks, study length 123 weeks
  TD50: 18300 mg/kg/day
rat, strain Sprague-Dawley, males, by gavage, site: head, lesion: carcinoma, dosed 104 weeks, study length 123 weeks
  TD50: 4350 mg/kg/day
rat, strain Sprague-Dawley, males, by gavage, site: nasal cavity, lesion: esthesioneuroepithelioma, dosed 104 weeks, study length 123 weeks
  TD50: 18300 mg/kg/day
rat, strain Sprague-Dawley, males, by gavage, site: oral cavity, lesion: carcinoma, dosed 104 weeks, study length 123 weeks
  TD50: 18300 mg/kg/day

## C/C=C/C=O
rat, strain Charles River, males, in drinking water, site: liver, lesion: neoplastic nodule, dosed 113 weeks, study length 113 weeks
  TD50: 4.2 mg/kg/day
rat, strain Charles River, males, in drinking water, site: liver, lesion: several types, types named in the paper, dosed 113 weeks, study length 113 weeks
  TD50: 4.2 mg/kg/day

## CC(O)CCl (stereo unspecified)
mouse, strain B6C3F1, females, in drinking water, site: any site (literature study), lesion: several types, types named in the paper, dosed 105 weeks, study length 105 weeks
  carcinogen call: negative (inactive)
mouse, strain B6C3F1, females, in drinking water, site: liver, lesion: hepatocellular adenoma + hepatoblastoma + hepatocellular carcinoma, dosed 105 weeks, study length 105 weeks
  TD50: 1040 mg/kg/day
mouse, strain B6C3F1, males, in drinking water, site: any site (literature study), lesion: several types, types named in the paper, dosed 104 weeks, study length 104 weeks
  carcinogen call: negative (inactive)
rat, strain Fischer 344, females, in drinking water, site: any site (literature study), lesion: several types, types named in the paper, dosed 104 weeks, study length 104 weeks
  carcinogen call: negative (inactive)
rat, strain Fischer 344, females, in drinking water, site: liver, lesion: hepatocellular adenoma + hepatoblastoma + hepatocellular carcinoma, dosed 104 weeks, study length 104 weeks
  TD50: 707 mg/kg/day
rat, strain Fischer 344, males, in drinking water, site: any site (literature study), lesion: several types, types named in the paper, dosed 104 weeks, study length 104 weeks
  carcinogen call: negative (inactive)
rat, strain Fischer 344, males, in drinking water, site: liver, lesion: hepatocellular adenoma + hepatoblastoma + hepatocellular carcinoma, dosed 104 weeks, study length 104 weeks
  TD50: 427 mg/kg/day
